The source of these data is ChEMBL document CHEMBL5370600, “Oxindole and Benzoxazinone Alkaloids from the Seeds of Persea americana (Avocado) and Their SIRT1 Stimulatory Activity” (J Nat Prod, 2023).

One data set deals with HEK293. The experiment in a line: Cytotoxicity against HEK293 cells at 20 uM incubated for 24 hrs by MTT assay. Conditions: human, hek293, 24 h. In kind it is toxicity, cell-based.
Data set [1] concerns the target T1, NAD-dependent protein deacetylase sirtuin-1 (Homo sapiens) (UniProt Q96EB6).
T1 sequence (whole entry): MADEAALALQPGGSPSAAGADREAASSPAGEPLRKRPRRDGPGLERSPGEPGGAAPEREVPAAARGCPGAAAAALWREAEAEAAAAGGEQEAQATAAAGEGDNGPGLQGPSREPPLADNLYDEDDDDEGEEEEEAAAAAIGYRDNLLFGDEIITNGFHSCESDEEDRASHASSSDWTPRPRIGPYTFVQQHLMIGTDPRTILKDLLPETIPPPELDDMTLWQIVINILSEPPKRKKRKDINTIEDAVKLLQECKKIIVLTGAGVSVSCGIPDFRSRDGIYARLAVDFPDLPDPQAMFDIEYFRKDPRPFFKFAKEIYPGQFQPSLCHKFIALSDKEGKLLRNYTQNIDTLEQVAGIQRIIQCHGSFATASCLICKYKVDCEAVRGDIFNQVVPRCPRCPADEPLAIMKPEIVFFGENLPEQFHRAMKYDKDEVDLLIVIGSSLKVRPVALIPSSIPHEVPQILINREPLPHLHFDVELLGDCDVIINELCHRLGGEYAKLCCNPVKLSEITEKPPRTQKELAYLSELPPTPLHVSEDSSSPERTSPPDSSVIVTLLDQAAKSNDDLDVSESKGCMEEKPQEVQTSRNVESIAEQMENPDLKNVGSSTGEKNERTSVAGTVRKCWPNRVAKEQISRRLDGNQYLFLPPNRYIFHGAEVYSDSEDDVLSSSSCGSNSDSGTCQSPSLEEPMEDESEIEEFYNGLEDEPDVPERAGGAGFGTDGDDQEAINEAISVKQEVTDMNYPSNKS
The data set can be described thus: Activation of SIRT1 deacetylation (unknown origin) in flag tagged Sirt1 overexpressed HEK293 cells assessed as increase in NAD+/NADH ratio incubated for 12 hrs by fluorescence microplate reader analysis. In kind it is cell-based. Conditions: filed as activator, dose 10-20 µM.

Data set [2] deals with T1, NAD-dependent protein deacetylase sirtuin-1 (Homo sapiens). The data set can be described thus: Activation of SIRT1 deacetylation (unknown origin) transfected in HEK293 cells cotransfected with PG13-Luc/myc-tagged p53/flag-tagged Sirt1/RSV-beta-galactosidase assessed as decrease in luciferase activity incubated for 24 hrs by firefly luciferase assay. Particulars: filed as activator, dose 10-20 µM. In kind it is cell-based.

The target is the same in data set [3]. The experiment in a line: Activation of SIRT1 deacetylation (unknown origin) transfected in HEK293 cells cotransfected with PG13-Luc/myc-tagged p53/flag-tagged Sirt1/RSV-beta-galactosidase assessed as decrease in luciferase activity at 20 uM incubated for 24 hrs by firefly luciferase assay relative to control. The format is cell-based. More on the design: scale not given: the % may be the effect or the level left. Conditions: filed as activator.

Data set [4] has the same target. The experiment in a line: Activation of SIRT1 deacetylation (unknown origin) transfected in HEK293 cells cotransfected with PG13-Luc/myc-tagged p53/flag-tagged Sirt1/RSV-beta-galactosidase assessed as decrease in luciferase activity at 10 uM incubated for 24 hrs by firefly luciferase assay. In kind it is cell-based.

The source made the active and inactive calls. The calls are words filed in the database; no cut-off is given here.

Regarding `O=C(C[C@@]1(O)C(=O)Nc2ccccc21)OC[C@H]1O[C@@H](OCCc2ccc(O)cc2)[C@H](O)[C@@H](O)[C@@H]1O`, the Activity entry with HEK293 is listed as “Non-Toxic”. Consider `O=C(C[C@@H]1C(=O)Nc2ccccc21)OC[C@H]1O[C@@H](OCCc2ccc(O)c(O)c2)[C@H](O)[C@@H](O)[C@@H]1O`, for which the Activity entry in the data set on HEK293 is recorded as “Non-Toxic”.

Turning to `OC[C@@H](O)[C@@H](O)[C@H](O)[C@H](O)[C@@H](O)CO`, the Activity entry with HEK293 is reported as “Non-Toxic”.

As to `O=C(C[C@@H]1C(=O)Nc2ccccc21)OC[C@H]1O[C@@H](OCCc2ccc(O)cc2)[C@H](O)[C@@H](O)[C@@H]1O`, the Activity entry is “Dose-Dependent Effect” in data set [1], “Non-Toxic” with HEK293, “Dose-Dependent Effect” in data set [2] and 45% in data set [3]. Moreover, in data set [4] (filed as activator), the result was Active. For the molecule `O=C(C[C@H]1C(=O)Nc2ccccc21)OC[C@H]1O[C@@H](OCCc2ccc(O)c(O)c2)[C@H](O)[C@@H](O)[C@@H]1O`, the Activity entry with HEK293 is reported as “Non-Toxic”. On to `O=C(C[C@H]1C(=O)Nc2ccccc21)OC[C@H]1O[C@@H](OCCc2ccc(O)cc2)[C@H](O)[C@@H](O)[C@@H]1O`, for which the Activity entry with HEK293 was “Non-Toxic”; in data set [3], 65%. The outcome in data set [4] was inactive.

Consider `CO[C@@]1(CC(=O)OC[C@H]2O[C@@H](OCCc3ccc(O)cc3)[C@H](O)[C@@H](O)[C@@H]2O)OC(=O)Nc2ccccc21`, for which the Activity entry with HEK293 was “Non-Toxic”. Regarding `CC1=CC[C@@H](C(C)(C)O[C@@H]2O[C@H](CO)[C@@H](O)[C@H](O)[C@H]2O)CC1`, in the data set on HEK293, the Activity entry is given as “Non-Toxic”. With `O=C(/C=C1/C(=O)Nc2ccccc21)OC[C@H]1O[C@@H](OCCc2ccc(O)cc2)[C@H](O)[C@@H](O)[C@@H]1O`, the Activity result in the data set with HEK293 was “Non-Toxic”.

For the molecule `CO[C@]1(CC(=O)OC[C@H]2O[C@@H](OCCc3ccc(O)cc3)[C@H](O)[C@@H](O)[C@@H]2O)OC(=O)Nc2ccccc21`, the Activity entry in the data set with HEK293 is “Non-Toxic”. `O=C(C[C@]1(O)C(=O)Nc2ccccc21)OC[C@H]1O[C@@H](OCCc2ccc(O)cc2)[C@H](O)[C@@H](O)[C@@H]1O`: the Activity result in the data set on HEK293 was “Non-Toxic”.
